Assay results: patent publication US20030088077A1, “Metal chelated dyestuff for inkjet recording and aqueous inkjet recording liquid using the same” (MITSUBISHI CHEMICAL CORPORATION, priority 1999, published 2003)

Assays:
[1] = Indoor discoloring and fading property of a printed image (ozone resistance); assay type: physicochemical; settings: ozone concentration 3 ppm, humidity 50 to 60%, 2 hours, light-shielded; specialized photoprint paper
Procedure: (b) Indoor discoloring and fading property of a printed image (ozone resistance):
In a light-shielded tank having an ozone concentration of 3 ppm, a printed matter was left on standing under a humidity of 50 to 60% for 2 hours, and the degree of discoloring and fading before and after the standing was measured by Macbeth densitometer (Gretag Macbeth SPM50, manufactured by Macbeth), and quantified as the form of a ΔE value. In the case of the specialized photoprint paper, a good result was obtained at the above measurement wherein the ΔE value was 11.2.

[2] = Light resistance of a recorded image (xenon fade-meter); assay type: physicochemical; settings: 150 to 160 kJ/m^2 for 80 hours, specialized photoprint paper, larger value = more fading
Procedure: (a) Light resistance of a recorded image:
Using a xenon fade-meter (manufactured by Atlas), a recording paper was irradiated at an irradiation energy of 150 to 160 kJ/m^2 for 80 hours, and the degree of discoloring and fading before and after the irradiation was measured by Macbeth densitometer (Gretag Macbeth SPM50, manufactured by Macbeth), and quantified as the form of a ΔE value. Incidentally, the ΔE value is a numerical value expressing the degree of discoloring and fading. That is, the larger the value is, the larger the degree of discoloring and fading is and the lower the light fastness of the image is. In the case of the specialized photoprint paper, a good result was obtained at the above measurement wherein the ΔE value was 2.1.

N#Cc1nc(/N=N/c2ccc(N(CCC(=O)[O-])CCC(=O)[O-])cc2N)[nH]c1C#N.[Na+].[Na+] [Comparative dyestuff b]
Indoor discoloring & fading property (ΔE) [1]: 4.3
Light resistance (ΔE) [2]: 7.0
